From patent US20060293307A1, “Oxazolidinone derivatives as antimicrobials” (priority 2002, published 2006)
Values after ≈ are worked out from the molar mass of the structure shown. Like-named read-outs stand apart in the source and are kept apart here.

Assays:
[1] = test system: M. tuberculosis 35801; experiment: MIC against M. tuberculosis strains, agar dilution; assay type: cell-based, Mycobacterium tuberculosis; settings: S. No. 02 Mt-, Middle Brook 7H10 + OADC, 37° C., 14-21 days
[2] = test system: M. tuberculosis M-164; experiment: MIC against M. tuberculosis strains, agar dilution; assay type: cell-based, Mycobacterium tuberculosis; settings: Middle Brook 7H10 + OADC, 37° C., 14-21 days
[3] = test system: M. tuberculosis PC; experiment: MIC against M. tuberculosis strains, agar dilution; assay type: cell-based, Mycobacterium tuberculosis; settings: S. No. 18 Mt-, Middle Brook 7H10 + OADC, 37° C., 14-21 days
[4] = test system: M. intracellulare ATCC 35761; experiment: MIC against MAC strains, agar dilution; assay type: cell-based; settings: S. No. 07 Mi-2, M. intracellulare ATCC 35761, Middle Brook 7H10 + OADC, 37° C., 14-21 days
[5] = test system: M. avium intracellulare 926/98; experiment: MIC against MAC strains, agar dilution; assay type: cell-based; settings: S. No. 14 Mai-6, M. avium intracellulare 926/98, Middle Brook 7H10 + OADC, 37° C., 14-21 days
[6] = test system: S. aureus (Smith 49951); experiment: MIC, agar incorporation method; assay type: cell-based, Staphylococcus aureus; settings: Staphylococcus aureus
[7] = test system: S. epidermidis 823; experiment: MIC, agar incorporation method; assay type: cell-based, Staphylococcus epidermidis; settings: Staphylococcus epidermidis, 823
[8] = test system: S. epidermidis (MRSE)32965; experiment: MIC, agar incorporation method; assay type: cell-based, Staphylococcus epidermidis; settings: Staphylococcus epidermidis, MRSE
[9] = test system: S. epidermidis 358; experiment: MIC, agar incorporation method; assay type: cell-based, Staphylococcus epidermidis; settings: Staphylococcus epidermidis
[10] = test system: E. faecalis 21777; experiment: MIC, agar incorporation method; assay type: cell-based; settings: Enterococcus faecalis
[11] = test system: E. faecium 6A (VRE); experiment: MIC, agar incorporation method; assay type: cell-based, Enterococcus faecium; settings: Enterococcus faecium
[12] = test system: E. faecium 398(VRE); experiment: MIC, agar incorporation method; assay type: cell-based, Enterococcus faecium; settings: Enterococcus faecium
[13] = test system: E. durans 581; experiment: MIC, agar incorporation method; assay type: cell-based; settings: Enterococcus durans
[14] = test system: E. coli 25922; experiment: MIC, agar incorporation method; assay type: cell-based; settings: Escherichia coli
[15] = test system: K. oxytoca 49131; experiment: MIC, agar incorporation method; assay type: cell-based; settings: Klebsiella oxytoca
[16] = test system: Acinetobacter 9956; experiment: MIC, agar incorporation method; assay type: cell-based
[17] = test system: S. pneumoniae AB-3; experiment: MIC, agar incorporation method; assay type: cell-based, Streptococcus pneumoniae; settings: Streptococcus pneumoniae, AB3
[18] = test system: S. pneumoniae AB 10; experiment: MIC, agar incorporation method; assay type: cell-based, Streptococcus pneumoniae; settings: Streptococcus pneumoniae, AB10
[19] = test system: S. pneumoniae AB 31; experiment: MIC, agar incorporation method; assay type: cell-based, Streptococcus pneumoniae; settings: Streptococcus pneumoniae, AB31
[20] = test system: S. pneumoniae AB 14; experiment: MIC, agar incorporation method; assay type: cell-based, Streptococcus pneumoniae; settings: Streptococcus pneumoniae, AB14
[21] = test system: S. pneumoniae CS 1687; experiment: MIC, agar incorporation method; assay type: cell-based, Streptococcus pneumoniae; settings: Streptococcus pneumoniae, CS1687
[22] = test system: S. pneumoniae AB 25; experiment: MIC, agar incorporation method; assay type: cell-based, Streptococcus pneumoniae; settings: Streptococcus pneumoniae, AB25
[23] = test system: S. pneumoniae AB 30; experiment: MIC, agar incorporation method; assay type: cell-based, Streptococcus pneumoniae; settings: Streptococcus pneumoniae, AB30
[24] = test system: S. pneumoniae ATCC 49619; experiment: MIC, agar incorporation method; assay type: cell-based, Streptococcus pneumoniae; settings: Streptococcus pneumoniae, ATCC49619
[25] = test system: S. pneumoniae AB 34; experiment: MIC, agar incorporation method; assay type: cell-based, Streptococcus pneumoniae; settings: Streptococcus pneumoniae, AB34
[26] = test system: S. pneumoniae ATCC 6303; experiment: MIC, agar incorporation method; assay type: cell-based, Streptococcus pneumoniae; settings: Streptococcus pneumoniae, ATCC6303
[27] = test system: S. pyogenes 25147; experiment: MIC, agar incorporation method; assay type: cell-based, Streptococcus pyogenes; settings: Streptococcus pyogenes, 25147
[28] = test system: S. pneumoniae 1256; experiment: MIC, agar incorporation method; assay type: cell-based, Streptococcus pneumoniae; settings: Streptococcus pneumoniae
[29] = test system: Moraxella M1; experiment: MIC, agar incorporation method; assay type: cell-based
[30] = test system: Moraxella cata. M2; experiment: MIC, agar incorporation method; assay type: cell-based
[31] = test system: H. influenzae βIac; experiment: MIC against Haemophilus strains; assay type: cell-based; settings: Haemophilus influenzae; s. No. 3, H. influenzae βIac; read-out: MIC
[32] = test system: H. influenzae 1381; experiment: MIC against Haemophilus strains; assay type: cell-based; settings: Haemophilus influenzae; s. No. 7, H. influenzae 1381; read-out: MIC
[33] = Mycobacterium tuberculosis, read-out: MIC
[34] = Mycobacterium tuberculosis, M164, S. No. 10 Mt-, read-out: MIC

NNC(=O)c1ccncc1 [INH]
MIC [1]: 0.06 µg/mL
MIC ([2]; S. No. 10 Mt-): >32 µg/mL
MIC [3]: 0.25 µg/mL
MIC [4]: 4.0 µg/mL
MIC [5]: 4.0 µg/mL

CC(=O)NC[C@H]1CN(c2ccc(N3CCOCC3)c(F)c2)C(=O)O1 [Linezolid, reference compound]
MIC [6]: 1 µg/mL (≈ 2.96 µM)
MIC [7]: < 0.5 µg/mL
MIC [8]: 1 µg/mL (≈ 2.96 µM)
MIC [9]; 358: 1 µg/mL (≈ 2.96 µM)
MIC [10]; 21777: 2 µg/mL (≈ 5.93 µM)
MIC ([11]; VRE): 2 µg/mL (≈ 5.93 µM)
MIC ([12]; VRE): 1 µg/mL (≈ 2.96 µM)
MIC [13]; 581: 1 µg/mL (≈ 2.96 µM)
MIC [14]; 25922: > 16 µg/mL
MIC [15]; 49131: > 16 µg/mL
MIC ([16]; Acinetobacter, 9956): > 16 µg/mL
MIC [17]: 0.25 µg/mL (≈ 0.741 µM)
MIC [18]: 0.25 µg/mL (≈ 0.741 µM)
MIC [19]: 1 µg/mL (≈ 2.96 µM)
MIC [20]: 1 µg/mL (≈ 2.96 µM)
MIC [21]: 1 µg/mL (≈ 2.96 µM)
MIC [22]: 1 µg/mL (≈ 2.96 µM)
MIC [23]: 1 µg/mL (≈ 2.96 µM)
MIC [24]: 1 µg/mL (≈ 2.96 µM)
MIC [25]: 2 µg/mL (≈ 5.93 µM)
MIC [26]: 1 µg/mL (≈ 2.96 µM)
MIC [27]: 1 µg/mL (≈ 2.96 µM)
MIC [28]; 1256: 1 µg/mL (≈ 2.96 µM)
MIC ([29]; Moraxella, M1): 4 µg/mL (≈ 11.9 µM)
MIC ([30]; Moraxella, CATA.M2): 4 µg/mL (≈ 11.9 µM)
MIC [31]: 8 µg/mL (≈ 23.7 µM)
MIC [32]: 16 µg/mL (≈ 47.4 µM)
MIC [1, 33]: 1 µg/mL
MIC [2, 34]: 32 µg/mL
MIC [3, 33]: 0.5 µg/mL

CO[C@H]1/C=C/O[C@@]2(C)Oc3c(C)c(O)c4c(O)c(c(/C=N/N5CCN(C)CC5)c(O)c4c3C2=O)NC(=O)/C(C)=C\C=C\[C@H](C)[C@H](O)[C@@H](C)[C@@H](O)[C@@H](C)[C@H](OC(C)=O)[C@@H]1C [RIF]
MIC [1]: 0.5 µg/mL
MIC ([2]; S. No. 10 Mt-): >32 µg/mL
MIC [4]: 0.25 µg/mL
MIC [5]: 0.25 µg/mL

C[C@@H]1CN(c2c(F)c(N)c3c(=O)c(C(=O)O)cn(C4CC4)c3c2F)C[C@H](C)N1 [SPAR]
MIC [1]: ≦0.125 μg/ml
MIC ([2]; S. No. 10 Mt-): 1.0 µg/mL
MIC [3]: ≦0.125 μg/ml
MIC [4]: 2.0 µg/mL
MIC [5]: 2.0 µg/mL

CCc1cc(C(N)=S)ccn1 [ETH]
MIC [1]: 2.0 µg/mL
MIC ([2]; S. No. 10 Mt-): >32 µg/mL
MIC [3]: 1.0 µg/mL
MIC [4]: >32 µg/mL
MIC [5]: 16 µg/mL

CC(=O)NC[C@H]1CN(c2ccc(N3CCN(c4ccc([N+](=O)[O-])s4)CC3)c(F)c2)C(=O)O1 [Compound No. 1, (S)—N-[[3-[3-Fluoro-4-[4-(5-nitro-2-thienyl)-1-piperazinyl]phenyl]-2-oxo-5-oxazolidinyl]methyl]acetamide]
MIC ([6]; S. No. 9, S. aureus (Smith 49951), read-out: MIC): 0.25 µg/mL (≈ 0.539 µM)
MIC [7]: 0.125 µg/mL (≈ 0.27 µM)
MIC [8]: 0.125 µg/mL (≈ 0.27 µM)
MIC ([9]; S. No. 14, S. epidermidis 358, read-out: MIC): 0.25 µg/mL (≈ 0.539 µM)
MIC ([10]; S. No. 18, E. faecalis 21777, read-out: MIC): 0.25 µg/mL (≈ 0.539 µM)
MIC ([11]; S. No. 21, E. faecium 6A (VRE), read-out: MIC): 0.25 µg/mL (≈ 0.539 µM)
MIC ([12]; S. No. 22, E. faecium 398(VRE), read-out: MIC): 0.25 µg/mL (≈ 0.539 µM)
MIC ([13]; S. No. 24, E. durans 581, read-out: MIC): 0.25 µg/mL (≈ 0.539 µM)
MIC ([14]; S. No. 25, E. coli 25922, read-out: MIC): > 16 µg/mL
MIC ([15]; S. No. 27, K. oxytoca 49131, read-out: MIC): > 16 µg/mL
MIC ([16]; S. No. 30, Acinetobacter 9956, read-out: MIC): > 16 µg/mL
MIC ([17]; S. No. 32, S. pneumoniae AB-3, read-out: MIC): 0.06 µg/mL (≈ 0.129 µM)
MIC ([18]; S. No. 35, S. pneumoniae AB 10, read-out: MIC): 0.06 µg/mL (≈ 0.129 µM)
MIC [19]: 0.125 µg/mL (≈ 0.27 µM)
MIC [20]: 0.125 µg/mL (≈ 0.27 µM)
MIC [21]: 0.125 µg/mL (≈ 0.27 µM)
MIC [22]: 0.125 µg/mL (≈ 0.27 µM)
MIC [23]: 0.125 µg/mL (≈ 0.27 µM)
MIC ([24]; S. No. 48, S. pneumoniae ATCC 49619, read-out: MIC): 0.06 µg/mL (≈ 0.129 µM)
MIC ([25]; S. No. 49, S. pneumoniae AB 34, read-out: MIC): 0.25 µg/mL (≈ 0.539 µM)
MIC [26]: 0.125 µg/mL (≈ 0.27 µM)
MIC [27]: 0.125 µg/mL (≈ 0.27 µM)
MIC ([28]; S. No. 56, S. pneumoniae 1256, read-out: MIC): 0.25 µg/mL (≈ 0.539 µM)
MIC ([29]; S. No. 58, Moraxella M1, read-out: MIC): 1 µg/mL (≈ 2.16 µM)
MIC ([30]; S. No. 59, Moraxella cata. M2, read-out: MIC): 0.25 µg/mL (≈ 0.539 µM)
MIC [31]: 8 µg/mL (≈ 17.3 µM)
MIC [32]: 8 µg/mL (≈ 17.3 µM)
MIC [1, 33]: ≤ 0.125 µg/mL
MIC [2, 34]: 0.5 µg/mL
MIC [3, 33]: 0.25 µg/mL
MIC ([4]; Mycobacterium intracellulare, ATCC35761, read-out: MIC): < 0.12 µg/mL
MIC ([5]; Mycobacterium avium, read-out: MIC): < 0.12 µg/mL

CC[C@H]1OC(=O)[C@H](C)[C@@H](O[C@H]2C[C@@](C)(OC)[C@@H](O)[C@H](C)O2)[C@H](C)[C@@H](O[C@@H]2O[C@H](C)C[C@H](N(C)C)[C@H]2O)[C@](C)(OC)C[C@@H](C)C(=O)[C@H](C)[C@@H](O)[C@]1(C)O [CLA]
MIC [1]: >32 µg/mL
MIC ([2]; S. No. 10 Mt-): 16 µg/mL
MIC [3]: 32 µg/mL
MIC [4]: 0.5 µg/mL
MIC [5]: 1.0 µg/mL
